# Values of other authors, collected in publication PMC7894237 (Inflammation Research, 2021).
# Read-outs that look alike come from different tables or passages of the source.
# Experiments:
# [1] = test system: Castleman’s disease
# [2] = test system: patients with multicentric Castleman disease
# [3] = test system: patients with COVID-19 who developed ARDS
# [4] = test system: COVID-19 pneumonia
# [5] = not given; remark: listed apart in the source
# [6] = test system: severe cases of COVID-19
# [7] = test system: patients with COVID-19
# [8] = test system: SARS-CoV1 replication in Vero cells
# [9] = test system: SARS-CoV1 replication in Vero cells; remark: listed apart in the source
# [10] = test system: patients with SARS infection; conditions: human, in vivo
# [11] = test system: IL-1α, IL-1β, and TNF-α
# [12] = test system: patients with severe sepsis with hyper-inflammation; conditions: phase 3 randomized clinical trial
# [13] = test system: patient with severe COVID-19; conditions: anakinra started day 10 after hospital admission
# [14] = not given; remark: listed apart in the source
# [15] = test system: sHLH/MAS patients; conditions: five adult patients, IV infusions up to 2400 mg/day
# [16] = test system: patients with COVID-19; conditions: nine patients
# [17] = not given; remark: listed apart in the source
# [18] = test system: severe cases of COVID-19; conditions: compared with the control group
# [19] = test system: patients with CAPS
# [20] = test system: IL-6 and GM-CSF levels
# [21] = test system: AAK1; conditions: compared with ruxolitinib and fedratinib
# [22] = test system: COVID-19 particle entry in human lung host cells; conditions: via inhibiting AAK1 and binding to GAK
# [23] = test system: COVID-19 patients; conditions: single 300 mg dose subcutaneously, ten patients
# [24] = test system: patients with rheumatoid arthritis
# [25] = test system: AAK1
# [26] = test system: influenza; conditions: pre-treatment, same dose of subtypes
# [27] = test system: patients with COVID-19; conditions: patient, died 13 days after hospitalization
# [28] = test system: malaria; conditions: deficient mice
# [29] = of those who experienced a worsening
molecule,measurement,setting,value
siltuximab: monoclonal antibody of IL-6,maximum tolerated dose,[1]; Castleman’s disease,100 mg twice weekly
same,median decrease in hepcidin levels,[1]; day 8 of siltuximab treatment,47%
same,dose at which maximum suppression of CRP level was observed,[1]; every 3 weeks,12 mg/kg
same,side effect: vomiting,[2]; 3/60 patients,5%
same,side effect: nausea,[2]; 4/60 patients,7%
same,side effect: neutropenia,[2]; 4/60 patients,7%
same,side effect: fatigue,[2]; 5/60 patients,8%
same,side effect: hypertension,[2]; 8/60 patients,13%
same,side effect: infection,[2]; 25/60 patients,42%
same,deaths,[2]; 60 patients,no deaths
same,patients with improvement in their condition with a reduced need for ventilation,"[3]; 21 patients, follow-up 8 days",33%
same,patients with worsening of their condition who required intubation,"[3]; 21 patients, follow-up 8 days",24%
same,patients with serum CRP levels reduced to within the normal range,"[3]; 21 patients, intravenous 700-1200 mg, follow-up 8 days",16 patients
same,patients who developed a cerebrovascular event,[3]; [29],one
same,patients who died,[3]; [29],one
same,half-life,,391 ± 101 h
tocilizumab: recombinant humanized anti-interleukin-6 receptor monoclonal antibody,need for mechanical ventilation,[4]; after tocilizumab therapy,did not require mechanical ventilation
same,treatment outcome,[4]; single administration in combination with hydroxychloroquine,successfully treated
same,major side-effects,[5],"general infections, hepatotoxicity, hypertriglyceridemia, as well as diverticulitis"
same,patients whose lymphocyte number returned to normal values,[6]; 10/19 patients,52.6%
same,patients whose abnormal elevated C-reactive protein returned to normal values,[6]; 16/19 patients,84.2%
same,patients with lowered oxygen intake,"[6]; 5 days after administration, 15/ 20 patients",75%
same,side effects,[6]; all patients,No obvious side effects
same,patients in whom the high level of CRP was suppressed rapidly,[7],11/15
same,patients with decreased serum IL-6 levels,[7]; after tocilizumab therapy,ten
IFN-α,sensitivity of SARS-CoV1 to the interferon,[8],only weakly sensitive
same,effect on SARS-CoV1 replication,[9],inhibited synergistically
same,therapeutic effect,[10],inconclusive
C=C1CC[C@H](O)C/C1=C/C=C1\CCC[C@]2(C)[C@@H]([C@H](C)/C=C/[C@H](C)C(C)C)CC[C@@H]12 [vitamin D],expression of pro-inflammatory markers,[11],suppressing the expression of pro-inflammatory markers
anakinra: recombinant IL-1R antagonist; blocks the binding of both IL-1α and IL-1β to IL-1R,side effects,[12],without markedly side effects
same,therapeutic effect,[12],beneficial
same,day on which patient was discharged from the ICU,[13],18 days
same,day on which respiratory function improved,[13],13 days
same,side effects observed,[14]; chronic anakinra therapy,reaction at the site of injection and infection
same,organ toxicities or gastrointestinal disturbances,[14]; specific IL-1β-targeting agents,no organ toxicities or gastrointestinal disturbances
same,therapeutic effect,[15],reduced cytokine storm and subsequent clinical improvement
same,therapeutic effect,[16],prevents mechanical ventilation and decreases serum inflammatory markers
same,toxicity,[16],no toxicity
same,half-life,[17],4 to 6 h
same,bioavailability,[17]; subcutaneous route,95%
same,plasma concentrations,"[17]; subcutaneous route, different chronic inflammatory conditions",adequate and consistent plasma concentrations
N#CC[C@H](C1CCCC1)n1cc(-c2ncnc3[nH]ccc23)cn1 [ruxolitinib],clinical improvement,[18],faster clinical improvement
rilonacept,major side effects,[19],"reactions at injection-site, upper respiratory tract infections, sinusitis, cough, hypoesthesia, nausea, diarrhea, stomach discomfort, and urinary tract infections"
same,serum CRP level,"[19]; week six, pre-treatment baseline value = 22 mg/L",2 mg/L
CCS(=O)(=O)N1CC(CC#N)(n2cc(-c3ncnc4[nH]ccc34)cn2)C1 [baricitinib],IL-6 and GM-CSF levels,[20],can decrease
same,affinity to AAK1,[21],more affinity to AAK1
same,COVID-19 particle entry,[22],can reduce the COVID-19 particle entry
"canakinumab: high affinity, monoclonal anti-IL-1β antibody",tolerability,[23],"well tolerated, with no recorded injection site reactions, infection, or side-effects"
C[C@@H]1CCN(C(=O)CC#N)C[C@@H]1N(C)c1ncnc2[nH]ccc12 [tofacitinib],CRP level and erythrocyte sedimentation rates,[24],decreased CRP level and erythrocyte sedimentation rates (ESR)
same,major side effects,[24],"increasing both low-density lipoprotein (LDL) and high-density lipoprotein (HDL) levels, and decreasing blood neutrophils"
same,inhibition of AAK1,[25],does not significantly inhibit
"IFN-α5: type I IFN subtype (protein, UniProt P01569 22-189, looked up) Interferon alpha-5: LGCDLPQTHSLSNRRTLMIMAQMGRISPFSCLKDRHDFGFPQEEFDGNQFQKAQAISVLHEMIQQTFNLFSTKDSSATWDETLLDKFYTELYQQLNDLEACMMQEVGVEDTPLMNVDSILTVRKYFQRITLYLTEKKYSPCAWEVVRAEIMRSFSLSANLQERLRRKE",effect on viral load,[26],more suppressive effects on the viral load than IFN-α1
"sarilumab: human monoclonal antibody directed against the alpha subunit of the IL-6R (antibody, chains of the INN, looked up, V domains shown) VH: EVQLVESGGGLVQPGRSLRLSCAASRFTFDDYAMHWVRQAPGKGLEWVSGISWNSGRIGYADSVKGRFTISRDNAENSLFLQMNGLRAEDTALYYCAKGRDSFDIWGQGTMVTVSS VL: DIQMTQSPSSVSASVGDRVTITCRASQGISSWLAWYQQKPGKAPKLLIYGASSLESGVPSRFSGSGSGTDFTLTISSLQPEDFASYYCQQANSFPYTFGQGTKLEIK",patients with no improvement in lung function who died,[27],one
"recombinant soluble IL-6R: recombinant soluble IL-6R, mimic the trans-signaling of IL-6 (protein, UniProt P08887 20-365, looked up, extracellular domain) extracellular domain: LAPRRCPAQEVARGVLTSLPGDSVTLTCPGVEPEDNATVHWVLRKPAAGSHPSRWAGMGRRLLLRSVQLHDSGNYSCYRAGRPAGTVHLLVDVPPEEPQLSCFRKSPLSNVVCEWGPRSTPSLTTKAVLLVRKFQNSPAEDFQEPCQYSQESQKFSCQLAVPEGDSSFYIVSMCVASSVGSKFSKTQTFQGCGILQPDPPANITVTAVARNPRWLSVTWQDPHSWNSSFYRLRFELRYRAERSKTFTTWMVKDLQHHCVIHDAWSGLRHVVQLRAQEEFGQGEWSEWSPEAMGTPWTESRSPPAENEVSTPMQALTTNKDDDNILFRDSANATSLPVQDSSSVPLP",outcome of malaria,[28],restores the lethal outcome of malaria
"interferon-gamma: Type II IFN (protein, UniProt P01579 24-161, looked up) Interferon gamma: QDPYVKEAENLKKYFNAGHSDVADNGTLFLGILKNWKEESDRKIMQSQIVSFYFKLFKNFKDDQSIQKSVETIKEDMNVKFFNSNKKKRDDFEKLTNYSVTDLNVQRKAIHELIQVMAELSPAAKTGKRKRSQMLFRG",sensitivity of SARS-CoV1 to the interferon,[8],only weakly sensitive
"IFN-α6: type I IFN subtype (protein, UniProt P05013 21-189, looked up) Interferon alpha-6: SLDCDLPQTHSLGHRRTMMLLAQMRRISLFSCLKDRHDFRFPQEEFDGNQFQKAEAISVLHEVIQQTFNLFSTKDSSVAWDERLLDKLYTELYQQLNDLEACVMQEVWVGGTPLMNEDSILAVRKYFQRITLYLTEKKYSPCAWEVVRAEIMRSFSSSRNLQERLRRKE",effect on viral load,[26],more suppressive effects on the viral load than IFN-α1
